Legend:
Assay in all cases: relative viability (nuclei count vs DMSO), 5 days (fraction); higher = more cells survive
LCLC-103H = test system: LCLC-103H
How it was run: (§1)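 Medians of duplicate plates are given as relative viability. That measure is the nuclei count in treated wells divided by the count in vehicle wells. Counts were taken on 4× images of lung cancer cell lines in 1536-well plates, 5 days after pin-tool dosing the day after seeding with one drug alone or a fixed anchor-drug dose plus five library-drug doses (not always all listed) in √10 steps.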

NCI-H441 = test system: NCI-H441
How it was run: as §1

HCC-827 = test system: HCC-827
How it was run: as §1

ABC-1 = test system: ABC-1
How it was run: as §1

NCI-H1651 = test system: NCI-H1651
How it was run: as §1

NCI-H1355 = test system: NCI-H1355
How it was run: as §1

NCI-H2085 = test system: NCI-H2085
How it was run: as §1

NCI-H1792 = test system: NCI-H1792
How it was run: as §1

CAL-12T = test system: CAL-12T
How it was run: as §1

NCI-H23 = test system: NCI-H23
How it was run: as §1

LU99A = test system: LU99A
How it was run: as §1

H3255 = test system: H3255
How it was run: as §1

NCI-H322M = test system: NCI-H322M
How it was run: as §1

NCI-H1437 = test system: NCI-H1437
How it was run: as §1

NCI-H2228 = test system: NCI-H2228
How it was run: as §1

NCI-H2342 = test system: NCI-H2342
How it was run: as §1

UMC-11 = test system: UMC-11
How it was run: as §1

RERF-LC-KJ = test system: RERF-LC-KJ
How it was run: as §1

LK-2 = test system: LK-2
How it was run: as §1

HCC-15 = test system: HCC-15
How it was run: as §1

NCI-H2405 = test system: NCI-H2405
How it was run: as §1

201T = test system: 201T
How it was run: as §1

SMILES: COCC1(CO)C(=O)C2CCN1CC2 (stereo not drawn) [PRIMA-1MET] + COc1cccc2cc(-c3nc([C@H]4CC[C@H](C(=O)O)CC4)n4ncnc(N)c34)[nH]c12 [OSI-027] (partner 0.5 µM)
- relative viability (LCLC-103H; first compound 0.2 µM): 0.547
- relative viability (LCLC-103H; first compound 0.6325 µM): 0.391
- relative viability (LCLC-103H; first compound 2 µM): 0.399
- relative viability (LCLC-103H; first compound 6.325 µM): 0.481
- relative viability (LCLC-103H; first compound 20 µM): 0.409
- relative viability (NCI-H441; first compound 0.2 µM): 0.593
- relative viability (NCI-H441; first compound 0.6325 µM): 0.629
- relative viability (NCI-H441; first compound 2 µM): 0.663
- relative viability (NCI-H441; first compound 6.325 µM): 0.611
- relative viability (NCI-H441; first compound 20 µM): 0.313
- relative viability (HCC-827; first compound 0.2 µM): 0.694
- relative viability (HCC-827; first compound 0.6325 µM): 0.668
- relative viability (HCC-827; first compound 2 µM): 0.625
- relative viability (HCC-827; first compound 6.325 µM): 0.784
- relative viability (HCC-827; first compound 20 µM): 0.748
- relative viability (ABC-1; first compound 0.2 µM): 0.37
- relative viability (ABC-1; first compound 0.6325 µM): 0.401
- relative viability (ABC-1; first compound 2 µM): 0.349
- relative viability (ABC-1; first compound 6.325 µM): 0.48
- relative viability (ABC-1; first compound 20 µM): 0.0792
- relative viability (NCI-H1651; first compound 0.2 µM): 0.801
- relative viability (NCI-H1651; first compound 0.6325 µM): 0.756
- relative viability (NCI-H1651; first compound 2 µM): 0.636
- relative viability (NCI-H1651; first compound 6.325 µM): 0.669
- relative viability (NCI-H1651; first compound 20 µM): 0.701
- relative viability (NCI-H1355; first compound 0.2 µM): 0.361
- relative viability (NCI-H1355; first compound 0.6325 µM): 0.353
- relative viability (NCI-H1355; first compound 2 µM): 0.316
- relative viability (NCI-H1355; first compound 6.325 µM): 0.389
- relative viability (NCI-H1355; first compound 20 µM): 0.406
- relative viability (NCI-H2085; first compound 0.2 µM): 0.707
- relative viability (NCI-H2085; first compound 0.6325 µM): 0.665
- relative viability (NCI-H2085; first compound 2 µM): 0.315
- relative viability (NCI-H2085; first compound 6.325 µM): 0.548
- relative viability (NCI-H2085; first compound 20 µM): 0.194
- relative viability (NCI-H1792; first compound 0.2 µM): 0.683
- relative viability (NCI-H1792; first compound 0.6325 µM): 0.693
- relative viability (NCI-H1792; first compound 2 µM): 0.635
- relative viability (NCI-H1792; first compound 6.325 µM): 0.734
- relative viability (NCI-H1792; first compound 20 µM): 0.802
- relative viability (CAL-12T; first compound 0.2 µM): 0.7
- relative viability (CAL-12T; first compound 0.6325 µM): 0.608
- relative viability (CAL-12T; first compound 2 µM): 0.807
- relative viability (CAL-12T; first compound 6.325 µM): 0.798
- relative viability (CAL-12T; first compound 20 µM): 0.106
- relative viability (NCI-H23; first compound 0.2 µM): 0.456
- relative viability (NCI-H23; first compound 0.6325 µM): 0.509
- relative viability (NCI-H23; first compound 2 µM): 0.511
- relative viability (NCI-H23; first compound 6.325 µM): 0.568
- relative viability (NCI-H23; first compound 20 µM): 0.476
- relative viability (LU99A; first compound 0.2 µM): 0.322
- relative viability (LU99A; first compound 0.6325 µM): 0.29
- relative viability (LU99A; first compound 2 µM): 0.292
- relative viability (LU99A; first compound 6.325 µM): 0.268
- relative viability (LU99A; first compound 20 µM): 0.0893
- relative viability (H3255; first compound 0.2 µM): 0.642
- relative viability (H3255; first compound 0.6325 µM): 0.629
- relative viability (H3255; first compound 2 µM): 0.562
- relative viability (H3255; first compound 6.325 µM): 0.658
- relative viability (H3255; first compound 20 µM): 0.498
- relative viability (NCI-H322M; first compound 0.2 µM): 0.494
- relative viability (NCI-H322M; first compound 0.6325 µM): 0.289
- relative viability (NCI-H322M; first compound 6.325 µM): 0.57
- relative viability (NCI-H322M; first compound 20 µM): 0.13
- relative viability (NCI-H1437; first compound 0.2 µM): 1.03
- relative viability (NCI-H1437; first compound 0.6325 µM): 0.945
- relative viability (NCI-H1437; first compound 2 µM): 0.794
- relative viability (NCI-H1437; first compound 6.325 µM): 0.893
- relative viability (NCI-H1437; first compound 20 µM): 0.887
- relative viability (NCI-H2228; first compound 0.2 µM): 0.578
- relative viability (NCI-H2228; first compound 0.6325 µM): 0.462
- relative viability (NCI-H2228; first compound 2 µM): 0.442
- relative viability (NCI-H2228; first compound 6.325 µM): 0.481
- relative viability (NCI-H2228; first compound 20 µM): 0.0285
- relative viability (NCI-H2342; first compound 0.2 µM): 0.598
- relative viability (NCI-H2342; first compound 0.6325 µM): 0.59
- relative viability (NCI-H2342; first compound 2 µM): 0.483
- relative viability (NCI-H2342; first compound 6.325 µM): 0.595
- relative viability (NCI-H2342; first compound 20 µM): 0.565
- relative viability (UMC-11; first compound 0.2 µM): 0.478
- relative viability (UMC-11; first compound 0.6325 µM): 0.46
- relative viability (UMC-11; first compound 2 µM): 0.432
- relative viability (UMC-11; first compound 6.325 µM): 0.485
- relative viability (UMC-11; first compound 20 µM): 0.444
- relative viability (RERF-LC-KJ; first compound 0.2 µM): 0.56
- relative viability (RERF-LC-KJ; first compound 0.6325 µM): 0.625
- relative viability (RERF-LC-KJ; first compound 2 µM): 0.54
- relative viability (RERF-LC-KJ; first compound 6.325 µM): 0.662
- relative viability (RERF-LC-KJ; first compound 20 µM): 0.588
- relative viability (LK-2; first compound 0.2 µM): 0.201
- relative viability (LK-2; first compound 0.6325 µM): 0.186
- relative viability (LK-2; first compound 2 µM): 0.155
- relative viability (LK-2; first compound 6.325 µM): 0.149
- relative viability (LK-2; first compound 20 µM): 0.118
- relative viability (HCC-15; first compound 0.2 µM): 0.534
- relative viability (HCC-15; first compound 0.6325 µM): 0.616
- relative viability (HCC-15; first compound 2 µM): 0.526
- relative viability (HCC-15; first compound 6.325 µM): 0.559
- relative viability (HCC-15; first compound 20 µM): 0.439
- relative viability (NCI-H2405; first compound 0.2 µM): 0.501
- relative viability (NCI-H2405; first compound 0.6325 µM): 0.653
- relative viability (NCI-H2405; first compound 6.325 µM): 0.591
- relative viability (NCI-H2405; first compound 20 µM): 0.499
- relative viability (201T; first compound 0.2 µM): 0.82
- relative viability (201T; first compound 0.6325 µM): 0.702
- relative viability (201T; first compound 2 µM): 0.591
- relative viability (201T; first compound 6.325 µM): 0.759
- relative viability (201T; first compound 20 µM): 0.747

— the supplement of paper PMC10307832
